# Entries after “also recorded” stand apart in the source; their conditions may differ. Where two headings read alike, the source gives them in different places.
# Experiments:
# [1] = cited from earlier work
# [2] = system: intact nonpregnant systemic vessels; assay: PGI2 release in intact nonpregnant systemic vessels (GABA dose response curves); set-up: species or system sheep; details: for PGI2 levels on addition of Nanomolar Ouabain: most concentrations of GABA
# Description: In FIGS. 2A-2C, GABA dose response curves of systemic vessels in 18 day postpartum sheep are provided. These vessels are believed to be representative of non-pregnant normotensive systemic vessels. […] Accordingly, it appears that at least one of Taurine or EO (or the like) may be needed to up-regulate the GABA-a receptor to augment PGI2 levels in the presence of nanomolar ouabain, or may at least be substantially helpful to increase PGI2 levels.
# In FIG. 2C, the systemic vessels react to variable GABA in a similar manner as pregnant uterine vessels (see, e.g., FIG. 1B), but only in the presence of Ouabain.
# Accordingly, the inventor has unexpectedly discovered that Ouabain exposure may modulate the PGI2 response through interaction with the GABA-a/AT1 construct.
# [3] = system: pregnant systemic arteries; assay: PGI2 release in pregnant systemic arteries
# Description: During experimentation between uterine vessels and systemic vessels during pregnancy, an inverse response between uterine and systemic vessels and their levels of PGI2 release was found. […] Pregnant uterine vessels, however, required GABA and angiotensin II to increase PGI2. The inventor has surmised that this mechanism is likely feto-productive in cases of hemorrhage and low blood volume during pregnancy. During these times, AII increases, dilating the uterine circuit and constricting the systemic circuit, thereby allowing the maternal blood to pass by the baby, prolonging the baby's chances of survival.
# (§1) Accordingly, as may be observed, there is an inverse relationship depending on the vascular circuit.
# (§2) With reference to FIGS. 5A and 5B, the inventor's laboratory data indicates the presence of GABA-a receptors in both systemic vessels and uterine vessel in pregnant animals. […] It may be noted that the third and last columns of FIG. 5A and the last two columns of FIG. 5B reflect competition on the GABA-a receptor between GABA and bicuculine. GABA improves PGI2 response substantially more in the absence of GABA-a receptor competition (e.g., bicuculine); and GABA with bicuculine improves PGI2 response substantially more than bicuculine alone.
# (§3) With reference to FIG. 6, the inventor's laboratory data further illustrates that when the endothelium is removed from the pregnant uterine and systemic vessels, respectively, the PGI2 release trends that had been seen in the intact vessels is reversed. As may be observed, PGI2 release in pregnant uterine vessels is reduced in the presence of AII when the endothelium is removed; inversely, PGI2 release in pregnant systemic vessels is increased in the presence of AII when the endothelium is removed.
# [4] = system: pregnant uterine arteries; assay: PGI2 release in pregnant uterine arteries
# Description: as §1, §2, §3
# FIG. 1A illustrates an Ouabain Dose Response Curve (“ODRC”) in pregnant uterine tissue. […] This may indicate inactivity of the GABA-a/AT1 construct without Taurine. It may have been expected that substantially less PGI2 would be released without AII than with AII. […] This may indicate an active GABA-a/AT1 construct under such conditions. […] Accordingly, the inventor has surmised that non-pregnant normotensive systemic vessel behave similarly to pregnant uterine vessels when exposed to Ouabain, releasing higher levels of PGI2 in the presence of GABA and AII.
# This increase in PGI2 release in the presence of higher Ouabain may explain the EO resistance noted in pregnancy.
# Cyclooxygenase (COX) = details: humans or rats, pharmacological blockade of COX; cited from earlier work
compound,measurement,setting,value
CCCCOC(=O)NS(=O)(=O)c1sc(CC(C)C)cc1-c1ccc(Cn2ccnc2)cc1 [C21],Blood pressure,[1]; eHTN humans,not shown to reduce blood pressure
NCCCC(=O)O [GABA],Blood pressure,[1]; normotensive patients,no effect
same,PGI2 response to GABA,"[2]; 18 day postpartum sheep systemic vessels, no EO or Taurine (FIG. 2A)",no PGI2 response
same,PGI2 release on exposure to GABA,"[3]; pregnant systemic vessels, absence of angiotensin II",increased PGI2 release
same,PGI2 release on addition of GABA,"[4]; pregnant uterine arteries, GABA alone, no AII (FIG. 5B col. 2)",insignificant effect on PGI2 release
same,PGI2 release on addition of GABA and AII,"[4]; pregnant uterine arteries, GABA with AII (FIG. 5B col. 1)",increased PGI2 release
C[C@@H]1O[C@@H](O[C@H]2C[C@@H](O)[C@]3(CO)[C@H]4[C@H](O)C[C@]5(C)[C@@H](C6=CC(=O)OC6)CC[C@]5(O)[C@@H]4CC[C@]3(O)C2)[C@H](O)[C@H](O)[C@H]1O [Ouabain],PGI2 levels on addition of Nanomolar Ouabain,"[2]; with AII, no Taurine (FIG. 2C)",significant increase in PGI2 levels
same,PGI2 levels on addition of Nanomolar Ouabain,"[2]; without AII, no Taurine (FIG. 2B)",significant increase in PGI2 levels
same,PGI2 release with increase in Ouabain,"[4]; pregnant uterine vessels, Ouabain from 10^−10 M to 10^−9 M, low taurine, GABA approx. −7 M (FIGS. 4A, 4B)",higher PGI2 release
"NCCS(=O)(=O)O [Taurine, 2-amino-ethane sulfonic acid]",Overall PGI2 release with versus without Taurine,"[4]; pregnant uterine arteries, regardless of AII presence (FIG. 1A vs 1B)",overall PGI2 release appears higher without Taurine
CC(=O)Oc1ccccc1C(=O)O [aspirin],Resting blood pressure,Cyclooxygenase (COX),does not substantially affect resting blood pressure
CN1CCc2cc3c(cc2[C@H]1[C@@H]1OC(=O)c2c1ccc1c2OCO1)OCO3 [bicuculine],PGI2 release on blocking GABA-a receptors,[3]; pregnant systemic vessels (FIG. 5A),reduced PGI2 release in both circuits
same,PGI2 release on blocking GABA-a receptors,"[4]; pregnant uterine arteries, even when additional GABA was added (FIG. 5B)",reduced PGI2 release in both circuits; also recorded: substantially reduced PGI2 release
COc1ccc2c(c1)c(CC(=O)O)c(C)n2C(=O)c1ccc(Cl)cc1 [indomethacin],Resting blood pressure,Cyclooxygenase (COX),does not substantially affect resting blood pressure
Angiotensin II [AII],PGI2 formation by presence or absence of Angiotensin II,"[2]; 18 day postpartum sheep, intact systemic vessels exposed to GABA, without Taurine or EO (FIG. 2A)",no significant PGI2 formation
same,PGI2 release on addition of AII,"[2]; in the presence of Ouabain, especially at higher concentrations of GABA (FIGS. 2B vs 2C)",substantially more PGI2 release
same,Relationship between PGI2 release and AII presence,"[3]; pregnant systemic circuit, various GABA levels, compared with uterine circuit (FIG. 3B)",substantially inverted
same,"PGI2 release in the presence of AII, endothelium removed","[3]; pregnant systemic vessels, endothelium removed (FIG. 6)",increased
same,Effect of presence or absence of AII on PGI2 release,"[4]; pregnant uterine arteries, GABA provided, without taurine, various levels of Ouabain (FIG. 1A)",negligible effect on PGI2 release
same,PGI2 release on further addition of AII,"[4]; pregnant uterine arteries, bicuculine and GABA present (FIG. 5B col. 4)",even further decreased PGI2
same,PGI2 release with versus without AII,"[4]; pregnant uterine circuit, most levels of GABA, no Taurine, no Ouabain (FIG. 3A)",more PGI2 is released in the presence of AII
same,"PGI2 release in the presence of AII, endothelium removed","[4]; pregnant uterine vessels, endothelium removed (FIG. 6)",reduced
